Source: ChEMBL document CHEMBL1124555, “9-Amino-1,2,3,4-tetrahydroacridin-1-ols: synthesis and evaluation as potential Alzheimer's disease therapeutics” (J Med Chem, 1989)

Tests used:
Acetylcholinesterase [1] = target: T1, Acetylcholinesterase (Rattus norvegicus, UniProt P37136)
T1 sequence (P37136 whole entry): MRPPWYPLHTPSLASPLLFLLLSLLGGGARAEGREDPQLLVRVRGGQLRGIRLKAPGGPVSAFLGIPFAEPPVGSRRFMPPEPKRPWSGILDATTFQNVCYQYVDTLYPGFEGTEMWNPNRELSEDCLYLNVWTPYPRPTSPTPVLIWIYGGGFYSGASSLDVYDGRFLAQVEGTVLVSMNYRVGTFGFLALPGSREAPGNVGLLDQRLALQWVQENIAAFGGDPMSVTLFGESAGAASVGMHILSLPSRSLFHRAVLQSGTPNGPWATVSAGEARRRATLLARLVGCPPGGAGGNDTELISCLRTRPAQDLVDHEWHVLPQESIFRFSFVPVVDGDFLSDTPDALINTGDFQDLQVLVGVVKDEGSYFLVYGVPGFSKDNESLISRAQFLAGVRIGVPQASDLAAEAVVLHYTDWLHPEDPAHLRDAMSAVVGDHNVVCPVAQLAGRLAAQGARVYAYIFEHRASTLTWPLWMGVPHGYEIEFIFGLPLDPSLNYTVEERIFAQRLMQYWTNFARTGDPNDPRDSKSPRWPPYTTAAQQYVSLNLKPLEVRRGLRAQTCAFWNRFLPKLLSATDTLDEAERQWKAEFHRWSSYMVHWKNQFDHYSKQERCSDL
Description: In vitro inhibition against acetylcholinesterase in rat striata.

Mus musculus [2] = species on record: Mus musculus; format: functional; settings: at 0.16 mg/kg
Description: Reversal of scopolamine-induced memory impairment in mice at 0.16 mg/Kg administered subcutaneously.

Mus musculus [3] = species on record: Mus musculus; format: functional; settings: at […]
Description: Reversal of scopolamine-induced memory impairment in mice at 0.31 mg/Kg administered subcutaneously.

Mus musculus [4] = species on record: Mus musculus; format: functional; settings: at 0.63 mg/kg
Description: Reversal of scopolamine-induced memory impairment in mice at 0.63 mg/Kg administered subcutaneously.

Mus musculus [5] = species on record: Mus musculus; format: functional; settings: at 1.25 mg/kg
Description: Reversal of scopolamine-induced memory impairment in mice at 1.25 mg/Kg administered subcutaneously.

Mus musculus [6] = species on record: Mus musculus; format: functional; settings: at 2.5 mg/kg
Description: Reversal of scopolamine-induced memory impairment in mice at 2.5 mg/Kg administered subcutaneously.

Mus musculus [7] = species on record: Mus musculus; format: functional; settings: at 5 mg/kg
Description: Reversal of scopolamine-induced memory impairment in mice at 5 mg/Kg administered subcutaneously.

[8] = target: Sodium-dependent dopamine transporter (Rattus norvegicus, UniProt P23977); format: functional
Sequence of Sodium-dependent dopamine transporter (P23977 whole entry): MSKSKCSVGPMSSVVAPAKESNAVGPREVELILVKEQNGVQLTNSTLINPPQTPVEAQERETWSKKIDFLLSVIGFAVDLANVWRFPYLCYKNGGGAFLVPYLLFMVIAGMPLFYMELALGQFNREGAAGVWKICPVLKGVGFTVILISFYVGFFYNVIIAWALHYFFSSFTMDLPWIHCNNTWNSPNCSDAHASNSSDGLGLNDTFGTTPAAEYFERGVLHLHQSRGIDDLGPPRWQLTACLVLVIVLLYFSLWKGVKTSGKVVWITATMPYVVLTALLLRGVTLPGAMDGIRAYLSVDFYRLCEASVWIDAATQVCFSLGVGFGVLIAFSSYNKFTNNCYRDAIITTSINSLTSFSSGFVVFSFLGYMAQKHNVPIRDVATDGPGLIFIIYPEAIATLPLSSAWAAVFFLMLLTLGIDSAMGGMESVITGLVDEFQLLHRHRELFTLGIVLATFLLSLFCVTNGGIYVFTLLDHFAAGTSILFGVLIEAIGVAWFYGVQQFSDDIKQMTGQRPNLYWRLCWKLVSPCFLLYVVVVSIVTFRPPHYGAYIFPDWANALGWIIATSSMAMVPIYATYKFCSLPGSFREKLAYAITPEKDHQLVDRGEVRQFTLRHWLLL
Description: Inhibition of the reuptake of dopamine in rat corpora striata.

[9] = target: Sodium-dependent serotonin transporter (Rattus norvegicus, UniProt P31652); format: functional
Sequence of Sodium-dependent serotonin transporter (P31652 whole entry): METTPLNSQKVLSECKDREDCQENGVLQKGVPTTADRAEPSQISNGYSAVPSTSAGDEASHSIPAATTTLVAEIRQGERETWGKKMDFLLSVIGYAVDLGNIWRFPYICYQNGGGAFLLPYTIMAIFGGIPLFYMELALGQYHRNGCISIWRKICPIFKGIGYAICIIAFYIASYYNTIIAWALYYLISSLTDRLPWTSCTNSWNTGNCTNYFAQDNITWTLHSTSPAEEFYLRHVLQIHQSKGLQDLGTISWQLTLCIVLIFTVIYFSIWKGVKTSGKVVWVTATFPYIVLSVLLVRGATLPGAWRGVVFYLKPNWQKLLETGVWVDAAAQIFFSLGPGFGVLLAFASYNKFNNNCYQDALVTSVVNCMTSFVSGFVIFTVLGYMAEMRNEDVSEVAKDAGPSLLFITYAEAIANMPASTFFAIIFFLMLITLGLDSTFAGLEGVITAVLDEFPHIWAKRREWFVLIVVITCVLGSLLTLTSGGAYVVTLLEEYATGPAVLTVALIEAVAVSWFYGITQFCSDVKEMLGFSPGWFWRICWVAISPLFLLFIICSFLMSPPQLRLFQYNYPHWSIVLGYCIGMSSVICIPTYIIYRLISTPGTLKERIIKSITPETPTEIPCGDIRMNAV
Description: Inhibition of serotonin reuptake in rat whole brains without cerebellum

[10] = target: Norepinephrine transporter (Rattus norvegicus, UniProt Q9WTR4)
Sequence of Norepinephrine transporter (Q9WTR4 whole entry): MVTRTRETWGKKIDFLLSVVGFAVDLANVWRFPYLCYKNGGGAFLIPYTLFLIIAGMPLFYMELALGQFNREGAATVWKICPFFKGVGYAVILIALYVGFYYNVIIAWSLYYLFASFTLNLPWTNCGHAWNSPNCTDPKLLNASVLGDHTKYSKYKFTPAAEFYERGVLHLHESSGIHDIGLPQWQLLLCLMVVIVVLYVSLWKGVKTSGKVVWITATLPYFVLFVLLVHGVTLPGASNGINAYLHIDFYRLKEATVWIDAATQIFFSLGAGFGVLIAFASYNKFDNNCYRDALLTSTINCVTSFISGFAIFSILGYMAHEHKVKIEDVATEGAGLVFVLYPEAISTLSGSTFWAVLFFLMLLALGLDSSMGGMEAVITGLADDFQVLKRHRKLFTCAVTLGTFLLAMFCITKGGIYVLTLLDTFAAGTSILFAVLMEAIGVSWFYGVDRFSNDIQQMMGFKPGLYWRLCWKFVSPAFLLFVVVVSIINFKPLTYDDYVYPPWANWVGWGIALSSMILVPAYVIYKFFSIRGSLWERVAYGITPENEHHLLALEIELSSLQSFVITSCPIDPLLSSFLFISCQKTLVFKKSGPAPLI
Description: Inhibition of norepinephrine reuptake in rat whole brains minus cerebellar

in vivo [11] = settings: rat, ip
Description: Toxicity evaluated in rats after intraperitoneal administration.

[12] = Toxicity was evaluated in rats, after intraperitoneal administration;Value ranges from (40-80).; format: organism-based; settings: rat, in vivo, ip
[13] = Toxicity was evaluated in rats, after intraperitoneal administration;Value ranges from(40-80); format: organism-based; settings: rat, in vivo, ip
Rattus norvegicus = species on record: Rattus norvegicus; experiment: cells
Description: Compound was evaluated for inhibition of the reuptake of norepinephrine

[14] = Toxicity was evaluated in rats, after intraperitoneal administration;Value ranges from (40-80); format: organism-based; settings: rat, in vivo, ip
Mus musculus [15] = experiment: Intra peritoneal administration for the reversal of tetrabenazine ptosis in mice; format: functional
[16] = Toxicity was evaluated in mice, after intraperitoneal administration;Value ranges from(83-107); format: organism-based; settings: mouse, in vivo, ip
[17] = Toxicity was evaluated in rats, after intraperitoneal administration;Value ranges from 50-60; format: organism-based; settings: rat, in vivo, ip
Mus musculus [18] = species on record: Mus musculus; experiment: Compound was tested in nbm model of mice, for the dose at which reversal of retention deficit in lesioned animals and enhanced learning in sham-pperated animals was observed; format: functional
Acetylcholinesterase [19] = target: T1, Acetylcholinesterase; experiment: In vitro inhibition against acetylcholinesterase in rat striatal; format: functional
in vivo [20] = settings: mouse, ip

Row | SMILES | IC50 (Acetylcholinesterase [1]) [µM] | Animals (Mus musculus [2]) [%] | Animals (Mus musculus [3]) [%] | Animals (Mus musculus [4]) [%] | Animals (Mus musculus [5]) [%] | Animals (Mus musculus [6]) [%] | Animals (Mus musculus [7]) [%] | IC50 [8] [µM] | IC50 [9] [µM] | IC50 [10] [µM] | LD50 [12] [mg/kg] | also measured
1 | OC1CCCc2nc3cc(Cl)ccc3c(NCc3ccc(F)cc3)c21 (stereo not drawn) | 0.823 | 13 | 7 | 7 | 7 | 0 | 0 | 4.1 | 6.6 | 2.2 | – | LD50 (in vivo [11]): > 80 mg/kg
2 | OC1CCCc2nc3ccccc3c(NCc3ccc(F)cc3)c21 (stereo not drawn) | 16.7 | 7 | 20 | 25 | 27 | 33 | 6 | 2.9 | 12 | 1.8 | < 80 | –
3 | OC1CCCc2nc3cc(F)ccc3c(NCc3ccccc3)c21 (stereo not drawn) | 8.63 | 13 | 0 | 0 | 0 | 0 | 0 | – | – | 0.2 | < 80 | –
4 | CCCNc1c2c(nc3ccccc13)CCCC2O (stereo not drawn) | 13.3 | – | – | – | – | – | – | > 20 | > 20 | – | – | LD50 [13]: < 80 mg/kg; IC50 (Rattus norvegicus): > 20 µM
5 | CNc1c2c(nc3ccccc13)CCCC2O (stereo not drawn) | 1.76 | 0 | 7 | 0 | 7 | 7 | 7 | > 20 | > 20 | > 20 | – | LD50 [14]: < 80 mg/kg
6 | Cc1ccccc1CNc1c2c(nc3ccccc13)CCCC2O (stereo not drawn) | 5.89 | 0 | 7 | 7 | 13 | 7 | 0 | 0.25 | 9 | 0.053 | – | ED50 (Mus musculus [15]): 25.3 mg/kg; LD50 [13]: < 80 mg/kg
7 | Nc1c2c(nc3ccc(Cl)cc13)CCCC2O (stereo not drawn) | 24.7 | – | – | – | – | – | – | – | – | – | – | IC50 (Rattus norvegicus): > 10 µM; LD50 (in vivo [11]): 80 mg/kg
8 | OC1CCCc2nc3ccccc3c(NCc3ccccc3F)c21 (stereo not drawn) | 41.3 | 7 | 14 | 33 | 7 | 20 | 7 | 0.41 | 17 | 0.11 | < 80 | –
9 | OC1CCCc2nc3ccccc3c(NCc3ccccc3C(F)(F)F)c21 (stereo not drawn) | 13.3 | 38 | 23 | 13 | 20 | 13 | 33 | 0.95 | 3.8 | 0.081 | – | ED50 (Mus musculus [15]): 16.2 mg/kg; LD50 (in vivo [11]): 80 mg/kg
10 | Cc1cccc(CNc2c3c(nc4ccccc24)CCCC3O)c1 (stereo not drawn) | 24.5 | 7 | 7 | 20 | 20 | 13 | 20 | 0.51 | 5.5 | 0.22 | – | LD50 [13]: < 80 mg/kg
11 | OC1CCCc2nc3ccccc3c(NCc3cccc(C(F)(F)F)c3)c21 (stereo not drawn) | 14.2 | 0 | 0 | 0 | 7 | 0 | 0 | 2.4 | 2.3 | 0.93 | < 80 | –
12 | COc1ccccc1CNc1c2c(nc3ccccc13)CCCC2O (stereo not drawn) | 36 | 33 | 7 | 20 | 7 | 13 | 27 | 0.72 | 9.8 | 4.8 | – | LD50 (in vivo [11]): 80 mg/kg
13 | Nc1c2c(nc3cc(C(F)(F)F)ccc13)CCCC2O (stereo not drawn) | 1.77 | 40 | 26 | 71 | 33 | 21 | 33 | – | – | – | – | LD50 [13]: < 80 mg/kg
14 | OC1CCCc2nc3ccccc3c(NCc3cccc(F)c3)c21 (stereo not drawn) | 13.1 | 33 | 23 | 7 | 0 | 14 | 21 | 0.3 | 6.2 | 0.12 | < 80 | –
15 | OC1CCCc2nc3ccccc3c(NCc3ccccc3)c21 (stereo not drawn) [SURONACRINE] | – | 27 | 50 | 20 | 13 | 21 | 36 | 0.3 | 11 | 0.07 | – | ED50 (Mus musculus [15]): 27.4 mg/kg; LD50 [16]: 94 mg/kg; LD50 [17]: < 60 mg/kg; Dose (Mus musculus [18]): 20 mg/kg; IC50 (Acetylcholinesterase [19]): 32.2 µM
16 | Nc1c2c(nc3ccccc13)CCCC2O (stereo not drawn) [VELNACRINE] | 4 | 14 | 20 | 33 | 20 | 31 | 33 | > 20 | > 20 | > 20 | < 80 | LD50 (in vivo [20]): 162 mg/kg
